Counter-ions that a name gives are not always drawn. Like-named read-outs stand apart in the source and are kept apart here.
How the values were obtained:
[1] = biological target: DNMT1 (Homo sapiens, UniProt P26358); assay: DNMT1 biochemical activity, breaklight assay and/or SPA assay
Protocol: DNMT1 breaklight in vitro assays were conducted in a total volume of 50 μl in a standard 384 well format, using black non-binding surface microplates (Corning 3575). […] Negative control wells used 5 μl of DNMT1 and 5 μl of oligonucleotide but 0 μM SAM. All reagents were made up in 1× assay buffer (20 mM Tris pH 6.8, 25 mM NaCl, 0.5 mM MgCl2, 0.01% Triton X100 and 1 mM DTT). The reaction was incubated at 26° C. for 45 min and then stopped with the addition of 40 μl detection reagent. Detection reagent, made up in 1× Gla assay buffer (20 mM Tris pH 8.0, 80 mM NaCl, 0.75 mM MgCl2, 0.01% Triton X100 and 1 mM DTT) has a final concentration of 100 μM SAH (Sigma #A9384) and 0.0008 units/μl Gla1 restriction endonuclease (Sibenzyme #E494). Following addition of the detection reagent the plate was incubated in the dark at room temperature for 5 hr. Fluorescence intensity was then measured on the PHERAstar FS (BMG Labtech) at Ex 485 nm and Em 520 nm, with a gain of 400 and an integration time of 100 ms.
Biochemical activity of DNMT1 analyzed using SPA technology. Plates (Griener 784075) were pre-stamped with 100 nL/well of compound (11-point, 3-fold serial dilution). […] Low control wells contained 5 μL of buffer instead of enzyme. Following a 40 minute incubation, the reaction was quenched upon the addition of 10 μL of stop mixture containing 1 mM SAM (Sigma A7007) and 2 mg/mL PEI beads (Perkin Elmer RPNQ0098). Plates were sealed, centrifuged for 1 min and then read on a Viewlux (Perkin Elmer) using the 613 nm emission filter/300 s read time following a 30 minute dark adapt. Assay conditions prior to quench consisted of 40 nM DNMT1 (601-1600, produced internally), 100 nM 3H-SAM (American Radiolabeled Chemicals ART 0288), 900 nM SAM (New England BioLabs B9003S) and 200 nM hemi methylated DNA oligonucleotide (synthesized at Integrated DNA Technologies, 5′-[…]-3′) in 50 mM HEPES (pH 8.0), 2 mM MgCl2, 1 mM DTT, 0.01% NP-40 and 0.01% BSA.
Comments • 1. […] Where a field is empty, the compound was not tested in that assay.

[2] = tested on: erythroid progenitor cells (EPCs); assay: Fetal hemoglobin (HbF) ELISA in day 7 erythroid progenitor cells; assay type: cell-based, human; details: HbF ELISA, day 7 EPCs, 5 days; for EC50: Homo sapiens, Erythroid progenitor cell, read-out: EPC ELISA (pEC50 category) (converted)
Protocol: Day 7 EPCs were cultured in duplicate plates with serially diluted Compound A for 5 days at 37° C. Wells were then analyzed for either induction of fetal hemoglobin (HbF,HbF ELISA) or cell growth (Cell Titer-Glo). In both cases, signal was normalized to vehicle-control treated cells.
Culture, Expansion, and Characterization of Day 7 Erythroid Progenitor Cells (EPC)s
All donors provided written informed consent for use of their samples, and the collection and use of the samples received institutional review board approval. All cryopreserved human bone marrow CD34+ cells used here were obtained from AlICells (Emeryville, Calif.) and were generally from different donors. The CD34+ cells were cultured to generate EPCs at day 7. Briefly, 1 million cells were cultured in 5% CO2, 5% O2 at 37° C. in H3000 Stemspan media (StemCell Technologies Vancouver, BC, Canada) supplemented with 2 mM L-glutamine, 40 μg/mL human low-density lipoproteins (StemCell Technologies), 10 ng/mL recombinant human (rh) interleukin IL-3 (R&D Systems, Minneapolis, Minn.), 100 ng/mL rh stem cell factor (R&D Systems), and 0.5 U/mL rh erythropoietin (Invitrogen, Grand Island, N.Y.). Cells were split and refed on day 4 with complete culture media described above and harvested on day 7 for evaluation of erythroid marker expression and assessment of γ-globin induction. Day 7 EPCs were then frozen in liquid nitrogen at 5 to 10 million cells/mL in 95% fetal bovine serum (FBS; Invitrogen) with 5% DMSO for subsequent use.
At the time of compound treatment, frozen day 7 EPCs prepared as described above were thawed, washed once and re-suspended in complete culture media as described above with the exception of an increase of rhEPO to 3 U/mL. Cells were counted and diluted to […] for plating into assay plates. Cells were then dispensed, at 30 μL per well with Multidrop™ Combi Reagent Dispenser (Thermo Scientific), into 384-well cell culture plates into which test compounds were pre-dispensed at 100 nL/well. Black Clear Bottom (Greiner Bio-One; 781090) and White (Greiner Bio-One; 781080) plates were used for ELISA and Cell Titer-Glo assays, respectively. The final cell density in the assays is 1,000 cells per well, with final compound concentrations between 33 nM (highest) and […] (lowest) for the 22-points serial dilution.
Fetal Hemoglobin (HbF) ELISA
Coating anti-HbF Ab (Bethyl Lab; cat. A80-136A) was diluted by 100-fold in the coating buffer (0.05 M carbonate-bicarbonate, pH 9.6), and then 20 μL/well was added to a 384-well MaxiSorp ELISA plate (Thermo Fisher; cat. 464718). After 1 hour incubation at room temperature, the plates were washed twice with ELISA washing buffer (50 mM Tris, 0.05% Tween 20, pH 8.0) with an EL406 plate washer (BioTek, Winooski, Vt.). Then, 40 μL/well of blocking buffer consisting of 50 mM Tris and 1% BSA (pH 8.0) was added to the plate and stored at 4° C. with cover sheet overnight, or until time of the assay. The coated ELISA plates were stable for up to 30 days at 4° C. On the day of assay, the plates were washed twice with ELISA washing buffer prior to addition of cell lysate.
After 5 days at 37° C. with 5% CO2 cell culture plates for ELISA assay were put into −80° C. freezer for a minimum of 2 hours. After thawing at room temperature, 30 μL of cell lysis buffer (Invitrogen; cat. FNN0011, supplemented with 1× protease inhibitor) was added to each well and the resulting cell lysate was mixed eight times with a Cybi-Well (Jena, Germany) pipettor. Following the mixing procedure, 20 μL/well of lysate was transferred to the coated ELISA plates described above followed by a 1 hour incubation at room temperature. The ELISA assay plates were washed three times with ELISA wash buffer. 20 μL per well of 1:75,000 to 100,000 diluted horseradish peroxidase (HRP) conjugate detection antiHbF Ab (Bethyl Labs; cat. A80-136P, diluted in 50 mM Tris [pH 8.0], 1% BSA, 0.05% Tween-20) was then added. […]

[3] = binned activity in either the breaklight or the SPA assay
[4] = binned activity in either the breaklight or the SPA assay, read-out: DNMT1 BioChemical (pIC50 category) (converted)

Sequence of DNMT1 (P26358 whole entry, looked up): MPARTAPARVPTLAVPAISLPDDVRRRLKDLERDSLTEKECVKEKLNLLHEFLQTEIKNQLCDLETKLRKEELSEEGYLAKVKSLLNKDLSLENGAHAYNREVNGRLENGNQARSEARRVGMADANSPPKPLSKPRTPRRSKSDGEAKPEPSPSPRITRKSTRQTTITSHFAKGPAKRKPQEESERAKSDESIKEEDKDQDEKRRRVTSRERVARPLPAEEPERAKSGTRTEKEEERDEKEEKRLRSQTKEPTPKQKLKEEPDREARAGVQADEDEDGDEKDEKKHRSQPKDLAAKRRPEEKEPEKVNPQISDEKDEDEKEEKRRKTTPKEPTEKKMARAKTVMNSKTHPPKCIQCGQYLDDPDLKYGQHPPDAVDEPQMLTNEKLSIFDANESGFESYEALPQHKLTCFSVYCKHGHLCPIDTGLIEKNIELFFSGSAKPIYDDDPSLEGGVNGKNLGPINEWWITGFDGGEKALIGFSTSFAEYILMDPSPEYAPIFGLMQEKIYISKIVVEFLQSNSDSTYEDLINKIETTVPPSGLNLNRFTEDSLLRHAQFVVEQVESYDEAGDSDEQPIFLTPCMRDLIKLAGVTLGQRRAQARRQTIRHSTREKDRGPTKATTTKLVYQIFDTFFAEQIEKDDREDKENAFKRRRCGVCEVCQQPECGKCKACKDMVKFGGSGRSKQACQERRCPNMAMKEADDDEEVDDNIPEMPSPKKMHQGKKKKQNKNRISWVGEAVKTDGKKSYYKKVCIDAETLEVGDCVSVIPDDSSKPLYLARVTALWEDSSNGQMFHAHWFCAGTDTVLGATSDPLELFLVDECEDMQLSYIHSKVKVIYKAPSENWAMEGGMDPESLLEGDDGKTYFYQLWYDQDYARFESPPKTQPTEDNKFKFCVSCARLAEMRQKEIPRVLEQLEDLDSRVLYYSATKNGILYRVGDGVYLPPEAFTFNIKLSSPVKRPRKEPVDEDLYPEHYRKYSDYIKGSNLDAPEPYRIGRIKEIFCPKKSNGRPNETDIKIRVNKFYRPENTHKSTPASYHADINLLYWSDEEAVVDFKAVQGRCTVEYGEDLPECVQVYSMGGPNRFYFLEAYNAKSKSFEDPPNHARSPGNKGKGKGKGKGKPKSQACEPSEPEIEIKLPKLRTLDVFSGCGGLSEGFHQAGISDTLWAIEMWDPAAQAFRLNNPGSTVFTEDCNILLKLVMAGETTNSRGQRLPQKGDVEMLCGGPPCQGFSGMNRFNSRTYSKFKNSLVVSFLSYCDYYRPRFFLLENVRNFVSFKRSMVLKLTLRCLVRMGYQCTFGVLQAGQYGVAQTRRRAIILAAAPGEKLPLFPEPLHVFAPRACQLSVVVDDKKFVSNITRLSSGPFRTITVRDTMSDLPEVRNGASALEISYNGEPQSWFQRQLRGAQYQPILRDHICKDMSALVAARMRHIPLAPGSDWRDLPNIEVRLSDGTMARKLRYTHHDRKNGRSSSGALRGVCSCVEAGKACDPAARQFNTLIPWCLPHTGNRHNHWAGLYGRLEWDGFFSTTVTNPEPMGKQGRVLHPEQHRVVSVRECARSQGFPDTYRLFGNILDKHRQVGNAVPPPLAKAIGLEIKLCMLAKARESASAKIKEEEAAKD

Row | SMILES | DNMT1 BioChemical (pIC50 category) [1, 3] | EC50 [2] [nM] | IC50 [1, 4] [nM] | EPC ELISA (pEC50 category) [2] | average pIC50 against DNMT1 ([1]; breaklight assay and/or SPA assay, repeated experimental runs) | IC50 ([1]; breaklight assay and/or SPA assay, repeated experimental runs, read-out: average pIC50 against DNMT1 (converted)) [nM]
1 | CCc1c(C#N)c(SCCN(C)C)nc(SC(C(N)=O)c2ccccc2)c1C#N (stereo not shown) [Example 218, 2-((3,5-Dicyano-6-((2-(dimethylamino)ethyl)thio)-4-ethylpyridin-2-yl)thio)-2-phenylacetamide] | – | < 316 | 316 to 1000 | – | – | –
2 | CCc1c(C#N)c(SCc2ccc(C(=O)O)cc2)nc(N2CCCN(C)CC2)c1C#N [Example 73, 4-(((3,5-Dicyano-4-ethyl-6-(4-methyl-1,4-diazepan-1-yl)pyridin-2-yl)thio)methyl)benzoic acid] | – | > 31600 | 316 to 1000 | – | – | –
3 | CCc1c(C#N)c(SCCN2CCOCC2)nc(SC(C(N)=O)c2ccccc2)c1C#N (stereo not shown) [Example 201, 2-((3,5-Dicyano-4-ethyl-6-((2-morpholinoethyl)thio)pyridin-2-yl)thio)-2-phenylacetamide] | – | 316 to 1000 | 316 to 1000 | – | – | –
4 | CCc1c(C#N)c(SC(C(N)=O)c2ccccc2)nc(N2CCO[C@@H](CN)C2)c1C#N (stereo partly drawn) [Example 586, 2-((6-((S)-2-(aminomethyl)morpholino)-3,5-dicyano-4-ethylpyridin-2-yl)thio)-2-phenylacetamide] | D (Category D: ≥6.5) | < 316 | – | – | – | –
5 | CC1CN(c2nc(SC(C(N)=O)c3ccccc3)c(C#N)c(C3CC3)c2C#N)CCN1 (stereo not shown) [Example 19, 2-((3,5-Dicyano-4-cyclopropyl-6-(3-methylpiperazin-1-yl)pyridin-2-yl)thio)-2-phenylacetamide] | – | < 316 | 316 to 1000 | – | – | –
6 | CCc1c(C#N)c(SC(C(N)=O)c2ccccc2)nc(N2CCN(Cc3cnco3)CC2)c1C#N (stereo not shown) [Example 184, 2-((3,5-Dicyano-4-ethyl-6-(4-(oxazol-5-ylmethyl)piperazin-1-yl)pyridin-2-yl)thio)-2-phenylacetamide] | – | 316 to 1000 | 316 to 1000 | – | – | –
7 | CCc1c(C#N)c(SCc2ccc(N(C)S(C)(=O)=O)cc2)nc(N2CCOC(CN)C2)c1C#N (stereo not shown) [Example 591, N-(4-(((6-(2-(aminomethyl)morpholino)-3,5-dicyano-4-ethylpyridin-2-yl)thio)methyl)phenyl)-N-methylmethanesulfonamide] | D (Category D: ≥6.5) | < 316 | – | – | – | –
8 | CCc1c(C#N)c(SC(C(N)=O)c2ccccc2)nc(N2CCO[C@@H](CNC(=O)C(C)(C)N)C2)c1C#N (stereo partly drawn) [Example 575, 2-amino-N-(((2S)-4-(6-((2-amino-2-oxo-1-phenylethyl)thio)-3,5-dicyano-4-ethylpyridin-2-yl)morpholin-2-yl)methyl)-2-methylpropanamide] | D (Category D: ≥6.5) | < 316 | – | – | – | –

Results, then the compound that gave them:

Row | DNMT1 BioChemical (pIC50 category) [1, 3] | EC50 [2] [nM] | IC50 [1, 4] [nM] | EPC ELISA (pEC50 category) [2] | average pIC50 against DNMT1 ([1]; breaklight assay and/or SPA assay, repeated experimental runs) | IC50 ([1]; breaklight assay and/or SPA assay, repeated experimental runs, read-out: average pIC50 against DNMT1 (converted)) [nM] | SMILES
9 | D (Category D: ≥6.5) | < 316 | – | – | – | – | CCc1c(C#N)c(SC(C(N)=O)c2ccccc2)nc(N2CCC(N(C)CC(C)(C)C)CC2)c1C#N (stereo not shown) [Example 551, 2-((3,5-dicyano-4-ethyl-6-(4-(methyl(neopentyl)amino)piperidin-1-yl)pyridin-2-yl)thio)-2-phenylacetamide]
10 | – | 1000 to 31600 | 316 to 1000 | – | – | – | CCc1c(C#N)c(SC(C(N)=O)c2ccccc2)nc(N2CCN(N)CC2)c1C#N (stereo not shown) [Example 234, 2-((6-(4-Aminopiperazin-1-yl)-3,5-dicyano-4-ethylpyridin-2-yl)thio)-2-phenylacetamide, Trifluoroacetic Acid Salt]
11 | D (Category D: ≥6.5) | < 316 | – | – | – | – | CCc1c(C#N)c(SC(C(N)=O)c2ccccc2)nc(N2CCC(NC3CC3)C(F)C2)c1C#N (stereo not shown) [Example 527, 2-((3,5-dicyano-6-(4-(cyclopropylamino)-3-fluoropiperidin-1-yl)-4-ethylpyridin-2-yl)thio)-2-phenylacetamide]
12 | – | – | 1000 to 31600 | C (Category C: 6.0 ≤ x < 6.5) | – | – | CCc1c(C#N)c(SC(C(N)=O)c2ccccc2)nc(N2CCCN(C)CC2)c1C#N (single isomer, unassigned; isomer 2) [Example 255, 2-((3,5-dicyano-4-ethyl-6-(4-methyl-1,4-diazepan-1-yl)pyridin-2-yl)thio)-2-phenylacetamide (Isomer 2)]
13 | D (Category D: ≥6.5) | < 316 | – | – | – | – | CCc1c(C#N)c(SC(C(N)=O)c2ccccc2)nc(N2CC[C@H](NCC(C)(C)O)C2)c1C#N (stereo partly drawn) [Example 541, 2-((3,5-dicyano-4-ethyl-6-((S)-3-((2-hydroxy-2-methylpropyl)amino)pyrrolidin-1-yl)pyridin-2-yl)thio)-2-phenylacetamide]
14 | D (Category D: ≥6.5) | < 316 | – | – | – | – | CCc1c(C#N)c(SC(C(N)=O)c2ccccc2)nc(N2CCC(NC)C2)c1C#N (stereo not shown) [Example 521, 2-((3,5-dicyano-4-ethyl-6-(3-(methylamino)pyrrolidin-1-yl)pyridin-2-yl)thio)-2-phenylacetamide]
15 | D (Category D: ≥6.5) | 316 to 1000 | – | – | > 6.5 | 158 | CCc1c(C#N)c(S[C@@H](C(N)=O)c2ccc(F)cc2)nc(N2CC[C@H](O)C2)c1C#N [Example 425]
16 | – | > 31600 | 1000 to 31600 | – | – | – | CCc1c(C#N)c(SC(C(N)=O)c2ccccc2)nc(N2CCC(OP(=O)(O)O)C2)c1C#N (stereo not shown) [Example 150, 1-(6-((2-Amino-2-oxo-1-phenylethyl)thio)-3,5-dicyano-4-ethylpyridin-2-yl)pyrrolidin-3-yl dihydrogen phosphate]

Reference: US10975056B2 (GlaxoSmithKline Intellectual Property Development Limited, priority 2016, dated 2021)
